# Experimental data from publication PMC6105827, “Antitrypanosomal 8-Hydroxy-Naphthyridines Are Chelators of Divalent Transition Metals” (Antimicrobial Agents and Chemotherapy, 2018).
# Read-outs that look alike come from different tables or passages of the source.
# How the values were obtained:
# THP-1 cells = experiment: THP-1 cell sensitivity; assay type: cell-based; conditions: Homo sapiens
# Method: (§1) L. donovani intramacrophage ([7]), HepG2 ([55]), T. brucei ([56]), and L. donovani promastigote ([57]) compound sensitivity assays were carried out as described previously. Human HepG2 and THP-1 cells used in these assays were provided by the ATCC. Data were processed by using GRAFIT (version 5.0.4; Erithacus Software) and fitted to a 2-parameter equation to obtain the effective concentration inhibiting growth by 50% (EC50). Data are presented as the means of results from at least two independent experiments.
# [1] = tested on: L. donovani promastigotes; experiment: L. donovani promastigote compound sensitivity assay (with/without metal salts)
# Method: (§2) The clonal Leishmania donovani cell line LdBOB (derived from MHOM/SD/62/1S-CL2D) was grown as promastigotes at 28°C, as described previously ([53]). Bloodstream-form T. brucei MiTat 1.2 clone 221a and its derived subline, 2T1, were cultured at 37°C in the presence of 5% CO2 in HMI9-T medium, as described previously ([54]). The human carcinoma HepG2 cell line was grown at 37°C with 5% CO2 in minimal Eagle's medium (MEM) with GlutaMAX (1×; Sigma-Aldrich), nonessential amino acids (Sigma-Aldrich), and 10% FBS. Human HepG2 and THP-1 cells used in this study were ethically sourced from the ATCC.
# as §1
# (§3) In the first instance, the maximum tolerated concentrations of ZnCl2, CaCl2, CuCl2, MgCl2, MnCl2, and FeCl2 were determined for each cell type. […] Standard drug sensitivity assays were carried out (as described above) for each cell type with compounds 1, 2, and 3 in the presence and absence of the maximum tolerated concentration of metal salt.
# [2] = tested on: Tb927.11.1910 knockdown bloodstream trypanosomes; experiment: Drug sensitivity of Tb927.11.1910 RNAi knockdown trypanosomes; assay type: cell-based; conditions: Trypanosoma brucei, read-out: EC50, Tb927.11.1910 knockdown
# Source text: (§4) Stem-loop RNAi constructs were assembled as described previously ([54], [62]). PCR primers were designed by using RNAit software ([63]). For HL2 (Tb927.11.15050), primers HL2FW and HL2RV were used to generate a 533-bp gene fragment, and for HL3 (Tb927.11.1910), primers HL3FW and HL3RV were used to generate a 513-bp gene fragment. The accuracy of all assembled constructs was verified by sequencing. Assembled constructs were linearized by using AscI prior to transfection into bloodstream T. brucei 2T1 parasites ([62]). In addition to phleomycin (1 μg ml^−1), trypanosomes maintaining successfully integrated vectors were selected using hygromycin (2.5 μg ml^−1) and confirmed to be puromycin (2 μg ml^−1) resistant. To generate C-terminal 12×Myc tagging vectors for Tb927.11.15050 (Myc1) and Tb927.11.1910 (Myc2), primers Myc1FW and Myc1RV and primers Myc2FW and Myc2RV were used to generate 924-bp and 1,095-bp fragments, respectively. Fragments were inserted into the pNATx^12xMyc construct ([54]) via HindIII and XbaI restriction sites. The accuracy of the assembled constructs was verified by sequencing, and the constructs were linearized with the restriction endonuclease MfeI prior to transfection into the above-described HL2 and HL3 trypanosomes. Trypanosomes maintaining successfully integrated vectors were selected with blasticidin (1 μg ml^−1).
# [3] = tested on: Tb927.11.15050 knockdown bloodstream trypanosomes; experiment: Drug sensitivity of Tb927.11.15050 RNAi knockdown trypanosomes; assay type: cell-based, Trypanosoma brucei; conditions: induced vs uninduced RNAi knockdown
# Source text: as §4
# HepG2 cells = experiment: HepG2 compound sensitivity assay (with/without ZnCl2); conditions: Homo sapiens, HepG2, read-out: HepG2 EC50
# Method: as §2, §1, §3
# [4] = tested on: L. donovani intramacrophage amastigotes; experiment: L. donovani intramacrophage compound sensitivity assay; assay type: cell-based; conditions: Leishmania donovani, read-out: Intra-macrophage EC50
# Method: as §1
# [5] = tested on: T. brucei bloodstream forms; experiment: microbe, parasite or virus in culture
# Method: as §2, §1, §3
# [6] = tested on: L. donovani promastigotes; experiment: Measurement of 8-HNT compound uptake by UPLC-MS/MS; assay type: cell-based, Leishmania donovani; conditions: 5 μM, 30 min
# Method: Triplicate samples of the culture (2 × 10^7 cells; 1 ml) were harvested by centrifugation at 16,000 × g for 5 min. The supernatant (200 μl) was collected from each centrifuged sample, transferred to a fresh Eppendorf tube, and terminated by the addition of 400 μl acetonitrile (supernatant fraction). The remaining supernatant was discarded, and acetonitrile (60 μl) was added to each pellet fraction. Finally, 400 μl acetonitrile was added to 200 μl of culture (equivalent of 4 × 10^6 cells) (total fraction). All fractions were then centrifuged at 16,000 × g for 10 min and diluted as required with MilliQ water. All samples were analyzed in triplicate on a Waters Acquity UPLC instrument coupled to a Waters micro TQs mass spectrometer. Chromatographic separation was achieved by using a Waters BEH (bridged ethylene hybrid) C18 column (1.7-μm particle size, 2.1 by 50 mm), with a flow rate of 0.6 ml min^−1, an injection volume of 0.2 μl, and the following 2-min gradient: 95% mobile phase A initially, with holding for 0.3 min before decreasing to 5% mobile phase A over the next minute and holding for a further 0.49 min before returning to 95% mobile phase A. Mobile phase A was water plus 0.1% formic acid, and mobile phase B was methanol plus 0.1% formic acid. […]
compound,measurement,setting,value
Cc1nnc(-c2nc(NCc3ccc(Cl)cc3)c3cccnc3c2O)[nH]1 [Compound 1],EC50,THP-1 cells,> 50000 nM
same,EC50,"[1]; Leishmania donovani, read-out: EC50 values, WT, promastigotes, absence of cation, FeCl2 experiment",800 ± 30 nM
same,EC50,"[1]; Leishmania donovani, read-out: EC50 values, WT, promastigotes, absence of cation, ZnCl2 experiment",800 ± 10 nM
same,EC50,"[1]; Leishmania donovani, read-out: L. donovani pro EC50, promastigotes (Fig. 1)",760 nM
same,Shift,"[1]; promastigotes, FeCl2 (100 μM) vs WT",2.0 fold
same,Shift,"[1]; promastigotes, ZnCl2 (100 μM) vs WT",11.0 fold
same,Shift,"[1]; promastigotes, ZnCl2 (100 μM) vs WT, listed as compound 1",11 fold
same,EC50,"[1]; read-out: EC50 values, WT, promastigotes, absence of cation, FeCl2 experiment",780 ± 30 nM
same,EC50,[2],600 ± 50 nM
same,Increase in EC50 on knockdown of Tb927.11.15050,[3],> 3 fold
same,EC50,HepG2 cells,10400 nM
same,EC50,[4],2100 nM
same,Shift (fold),[5]; CaCl2 (3 mM) vs WT,1.1 fold
same,Shift (fold),[5]; CuCl2 (5 μM) vs WT,1.1 fold
same,Shift (fold),[5]; FeCl2 (10 μM) vs WT,8.0 fold
same,Shift (fold),"[5]; FeCl2 (10 μM) vs WT, listed as compound 1",8 fold
same,Shift (fold),[5]; MgCl2 (1 mM) vs WT,1.1 fold
same,Shift (fold),[5]; MnCl2 (10 μM) vs WT,1.0 fold
same,EC50,"[5]; Trypanosoma brucei, read-out: EC50, wild-type [WT] trypanosomes",850 ± 50 nM
same,EC50,"[5]; Trypanosoma brucei, read-out: Mean EC50 ± SD, Plus cation, plus CaCl2 (3 mM)",400 ± 100 nM
same,EC50,"[5]; Trypanosoma brucei, read-out: Mean EC50 ± SD, Plus cation, plus CuCl2 (5 μM)",400 ± 5 nM
same,EC50,"[5]; Trypanosoma brucei, read-out: Mean EC50 ± SD, Plus cation, plus MgCl2 (1 mM)",400 ± 30 nM
same,EC50,"[5]; Trypanosoma brucei, read-out: Mean EC50 ± SD, Plus cation, plus MnCl2 (10 μM)",400 ± 20 nM
same,EC50,"[5]; Trypanosoma brucei, read-out: Mean EC50 ± SD, WT, absence of cation, CaCl2 experiment",300 ± 800 nM
same,EC50,"[5]; Trypanosoma brucei, read-out: Mean EC50 ± SD, WT, absence of cation, CuCl2 experiment",300 ± 80 nM
same,EC50,"[5]; Trypanosoma brucei, read-out: Mean EC50 ± SD, WT, absence of cation, FeCl2 experiment",220 ± 10 nM
same,EC50,"[5]; Trypanosoma brucei, read-out: Mean EC50 ± SD, WT, absence of cation, MgCl2 experiment",400 ± 10 nM
same,EC50,"[5]; Trypanosoma brucei, read-out: Mean EC50 ± SD, WT, absence of cation, MnCl2 experiment",400 ± 10 nM
same,EC50,"[5]; Trypanosoma brucei, read-out: Mean EC50 ± SD, WT, absence of cation, ZnCl2 experiment",360 ± 90 nM
same,EC50,"[5]; Trypanosoma brucei, read-out: T. brucei bsf EC50, bloodstream form (Fig. 1)",320 nM
same,Shift (fold),[5]; ZnCl2 (200 μM) vs WT,8.0 fold
same,Shift (fold),"[5]; ZnCl2 (200 μM) vs WT, listed as compound 1",8 fold
same,EC50,"[5]; read-out: Mean EC50 ± SD, WT, absence of cation, FeCl2 experiment",200 ± 10 nM
same,EC50,"[5]; read-out: Mean EC50 ± SD, WT, absence of cation, ZnCl2 experiment",350 ± 10 nM
same,Accumulation within cells relative to supernatant (equivalent Kp values),[6]; 4°C,29 ± 13 times
same,Accumulation within cells relative to supernatant (equivalent Kp values),[6]; 37°C,296 ± 69 times
